# According to patent US12351580B2, “NLRP3 modulators” (Innate Tumor Immunity, Inc., priority 2017, dated 2025):
# Key:
# TLR7 = target: T1, TLR7 (Homo sapiens, UniProt Q9NYK1); experiment: In vitro human TLR7 binding reporter assay (HEK-Blue, NF-kB/AP1-inducible SEAP); format: cell-based; details: activity range symbols
# T1 construct: host or cells: HEK-Blue cells (human HEK) co-expressing TLR7 and an NF-kB/AP1-inducible SEAP reporter
# T1 sequence (Q9NYK1 27-1049): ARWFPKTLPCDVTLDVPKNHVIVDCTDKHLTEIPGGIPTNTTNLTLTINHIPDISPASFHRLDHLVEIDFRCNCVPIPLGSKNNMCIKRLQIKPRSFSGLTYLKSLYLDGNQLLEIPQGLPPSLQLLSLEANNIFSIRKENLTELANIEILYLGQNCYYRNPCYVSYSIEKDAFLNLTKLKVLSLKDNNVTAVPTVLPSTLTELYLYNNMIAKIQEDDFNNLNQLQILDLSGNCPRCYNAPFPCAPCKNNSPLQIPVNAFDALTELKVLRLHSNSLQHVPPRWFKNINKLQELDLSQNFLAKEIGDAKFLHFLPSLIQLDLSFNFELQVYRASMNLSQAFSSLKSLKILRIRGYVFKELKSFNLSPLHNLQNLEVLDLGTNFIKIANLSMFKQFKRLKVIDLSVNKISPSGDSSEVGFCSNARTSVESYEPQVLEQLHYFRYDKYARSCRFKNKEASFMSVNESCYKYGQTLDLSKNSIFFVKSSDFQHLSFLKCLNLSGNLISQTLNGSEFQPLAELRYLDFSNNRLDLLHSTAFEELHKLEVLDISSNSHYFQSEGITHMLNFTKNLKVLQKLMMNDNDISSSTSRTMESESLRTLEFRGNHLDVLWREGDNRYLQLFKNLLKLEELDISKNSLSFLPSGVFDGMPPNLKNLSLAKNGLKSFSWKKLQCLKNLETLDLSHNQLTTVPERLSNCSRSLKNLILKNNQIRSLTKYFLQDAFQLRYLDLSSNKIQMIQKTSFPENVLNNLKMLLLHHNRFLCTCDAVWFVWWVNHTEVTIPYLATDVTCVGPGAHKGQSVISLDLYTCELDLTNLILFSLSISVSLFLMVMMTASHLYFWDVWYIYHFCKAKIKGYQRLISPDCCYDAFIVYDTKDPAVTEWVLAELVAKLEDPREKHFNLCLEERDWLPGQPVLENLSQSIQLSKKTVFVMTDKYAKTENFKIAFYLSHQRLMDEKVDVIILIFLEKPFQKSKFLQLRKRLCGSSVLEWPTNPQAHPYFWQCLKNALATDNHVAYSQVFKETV
# Method: (§1) In Vitro Human TLR7 and TLR8 Binding Reporter Assays
# (§2) Logarithmically-growing human HEK-Blue cells co-expressing a TLR7 or TLR8 gene and a NF-kB/AP1-inducible SEAP (secreted embryonic alkaline phosphatase; Invivogen, San Diego, CA) reporter gene are added to individual wells of a 384-well plate (15,000 cells per 20 μL per well) and maintained for 24 h at 37° C., 5% CO2. Test compounds or DMSO are distributed to separate wells the next day using acoustic liquid handling technology (100 nL per well) and cells are subsequently incubated for 18 h at 37° C., 5% CO2. Cellular SEAP production is measured using an Envision plate reader instrument thirty minutes after adding freshly-made Quanti-Blue reagent (prepared by following manufacturer instructions; Invivogen, San Diego, CA) to the HEK-Blue TLR Nf-kB-SEAP cell reactions. All EC50 values (half-maximal effective concentration) are determined using proprietary data analysis software.
# TLR8 = target: T2, TLR8 (Homo sapiens, UniProt Q9NR97); experiment: In vitro human TLR8 binding reporter assay (HEK-Blue, NF-kB/AP1-inducible SEAP); format: cell-based; details: activity range symbols
# T2 construct: host or cells: HEK-Blue cells (human HEK) co-expressing TLR8 and an NF-kB/AP1-inducible SEAP reporter
# T2 sequence (Q9NR97 27-1041): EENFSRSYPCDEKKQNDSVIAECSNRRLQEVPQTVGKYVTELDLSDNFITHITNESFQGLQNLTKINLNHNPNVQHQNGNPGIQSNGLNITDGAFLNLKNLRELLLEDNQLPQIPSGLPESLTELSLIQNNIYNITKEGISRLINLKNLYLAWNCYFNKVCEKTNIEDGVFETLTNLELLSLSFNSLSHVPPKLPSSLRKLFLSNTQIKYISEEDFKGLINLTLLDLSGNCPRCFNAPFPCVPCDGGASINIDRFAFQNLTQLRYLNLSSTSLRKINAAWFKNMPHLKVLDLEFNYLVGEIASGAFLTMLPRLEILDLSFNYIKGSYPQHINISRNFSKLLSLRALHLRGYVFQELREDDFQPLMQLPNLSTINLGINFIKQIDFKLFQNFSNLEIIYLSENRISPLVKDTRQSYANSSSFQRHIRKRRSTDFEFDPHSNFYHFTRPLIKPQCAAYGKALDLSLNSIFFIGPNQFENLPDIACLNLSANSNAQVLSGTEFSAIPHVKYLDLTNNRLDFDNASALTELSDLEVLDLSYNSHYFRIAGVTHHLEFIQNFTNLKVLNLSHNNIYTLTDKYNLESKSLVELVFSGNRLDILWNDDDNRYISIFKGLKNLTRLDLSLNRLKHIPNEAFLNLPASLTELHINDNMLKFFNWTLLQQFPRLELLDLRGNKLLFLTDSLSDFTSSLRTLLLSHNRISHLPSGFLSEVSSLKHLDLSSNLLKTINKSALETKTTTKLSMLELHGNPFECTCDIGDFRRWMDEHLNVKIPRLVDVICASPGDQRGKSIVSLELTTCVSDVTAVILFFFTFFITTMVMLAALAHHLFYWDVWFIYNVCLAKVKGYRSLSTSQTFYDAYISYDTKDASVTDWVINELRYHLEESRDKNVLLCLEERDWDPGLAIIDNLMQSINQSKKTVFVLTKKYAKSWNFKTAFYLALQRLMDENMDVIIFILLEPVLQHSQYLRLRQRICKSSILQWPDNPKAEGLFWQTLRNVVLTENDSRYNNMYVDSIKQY
# Method: as §1, §2
Structure (SMILES),EC50 (TLR7),EC50 (TLR8)
Nc1nc2cc(-n3cccn3)ccc2c2[nH]c(CN3CC(c4ccccc4)CC3=O)nc12 (stereo not drawn) [Compound 103],> 100 µM,> 100 µM
CCN(Cc1nc2c(N)nc3cc(C)ccc3c2[nH]1)C(C)=O [Compound 104],> 100 µM,> 100 µM
"CCNCc1nc2c(N)nc3cc(-c4cc[nH]n4)ccc3c2n1C [Compound 106, 2-((Ethylamino)methyl)-1-methyl-7-(1H-pyrazol-3-yl)-1H-imidazo[4,5-c]quinolin-4-amine]",> 100 µM,> 100 µM
"CCN(Cc1nc2c(N)nc3cc(-n4cccn4)ccc3c2[nH]1)S(C)(=O)=O [Compound 108, N-((4-Amino-7-(1H-pyrazol-1-yl)-1H-imidazo[4,5-c]quinolin-2-yl)methyl)-N-ethylmethanesulfonamide]",> 100 µM,> 100 µM
"CCN(Cc1nc2c(N)nc3cc(-c4cc[nH]n4)ccc3c2[nH]1)C(=O)OC(C)(C)C [Compound 109, tert-Butyl ((4-amino-7-(1H-pyrazol-3-yl)-1H-imidazo[4,5-c]quinolin-2-yl)methyl)(ethyl)carbamate]",> 100 µM,> 100 µM
"CCN(Cc1nc2c(N)nc3cc(-c4cc[nH]n4)ccc3c2[nH]1)C(=O)N(C)C [Compound 110, 1-((4-Amino-7-(1H-pyrazol-3-yl)-1H-imidazo[4,5-c]quinolin-2-yl)methyl)-1-ethyl-3,3-dimethylurea]",> 100 µM,> 100 µM
Nc1nc2cc(C(F)(F)F)ccc2c2[nH]c(CN3CCCC3=O)nc12 [Compound 163],20 to 100 µM,> 100 µM
CCN(Cc1nc2c(N)nc3ccccc3c2n1CCCC(=O)OC)C(C)=O [Compound 164],> 100 µM,> 100 µM
"CCN(Cc1nc2c(N)nc3cc(-c4ccccc4)ccc3c2[nH]1)C(C)=O [Compound 165, N-[(4-amino-7-phenyl-1H-imidazo[4,5-c]quinolin-2-yl)methyl]-N-ethylacetamide]",> 100 µM,> 100 µM
"CCN(Cc1nc2c(N)nc3cc(-c4cccnc4)ccc3c2[nH]1)C(C)=O [Compound 166, N-[(4-amino-7-pyridin-3-yl-1H-imidazo[4,5-c]quinolin-2-yl)methyl]-N-ethylacetamide]",> 100 µM,> 100 µM
"CCN(Cc1nc2c(N)nc3cc(-c4ccncc4)ccc3c2[nH]1)C(C)=O [Compound 167, N-[(4-amino-7-pyridin-4-yl-1H-imidazo[4,5-c]quinolin-2-yl)methyl]-N-ethylacetamide]",> 100 µM,> 100 µM
"CCN(Cc1nc2c(N)nc3cc(-c4cc(C)nn4C)ccc3c2[nH]1)C(C)=O [Compound 168, N-[[4-amino-7-(2,5-dimethylpyrazol-3-yl)-1H-imidazo[4,5-c]quinolin-2-yl]methyl]-N-ethylacetamide]",> 100 µM,> 100 µM
"CCCn1cc(-c2ccc3c(c2)nc(N)c2nc(CN(CC)C(C)=O)[nH]c23)cn1 [Compound 169, N-[[4-amino-7-(1-propylpyrazol-4-yl)-1H-imidazo[4,5-c]quinolin-2-yl]methyl]-N-ethylacetamide]",> 100 µM,> 100 µM
"CCN(Cc1nc2c(N)nc3cc(C(C)C)ccc3c2[nH]1)C(C)=O [Compound 170, N-[(4-amino-7-propan-2-yl-1H-imidazo[4,5-c]quinolin-2-yl)methyl]-N-ethylacetamide]",20 to 100 µM,> 100 µM
"CCc1ccc2c(c1)nc(N)c1nc(CN(CC)C(C)=O)[nH]c12 [Compound 171, N-[(4-amino-7-ethyl-1H-imidazo[4,5-c]quinolin-2-yl)methyl]-N-ethylacetamide]",1 to 20 µM,> 100 µM
"CCCc1ccc2c(c1)nc(N)c1nc(CN(CC)C(C)=O)[nH]c12 [Compound 172, N-[(4-amino-7-propyl-1H-imidazo[4,5-c]quinolin-2-yl)methyl]-N-ethylacetamide]",1 to 20 µM,> 100 µM
"CCN(Cc1nc2c(N)nc3cc(C4CCCC4)ccc3c2[nH]1)C(C)=O [Compound 173, N-[(4-amino-7-cyclopentyl-1H-imidazo[4,5-c]quinolin-2-yl)methyl]-N-ethylacetamide]",> 100 µM,> 100 µM
"CCN(Cc1nc2c(N)nc3cc(-c4cccnc4F)ccc3c2[nH]1)C(C)=O [Compound 175, N-[[4-amino-7-(2-fluoropyridin-3-yl)-1H-imidazo[4,5-c]quinolin-2-yl]methyl]-N-ethylacetamide]",> 100 µM,> 100 µM
CCN(Cc1nc2c(N)nc3ccccc3c2[nH]1)C(C)=O [Compound 176],> 100 µM,> 100 µM
CCN(Cc1nc2c(N)nc3cc(Br)ccc3c2[nH]1)C(C)=O [Compound 177],> 100 µM,> 100 µM
"CCN(Cc1nc2c(N)nc3cc(Cl)ccc3c2[nH]1)C(C)=O [Compound 179, N-[(4-amino-7-chloro-1H-imidazo[4,5-c]quinolin-2-yl)methyl]-N-ethylacetamide]",> 100 µM,> 100 µM

# The next lines start with the values.
EC50 (TLR7),EC50 (TLR8),Structure (SMILES)
> 100 µM,> 100 µM,"CCN(Cc1nc2c(N)nc3cc(-n4cccn4)ccc3c2[nH]1)C(C)=O [Compound 180, N-[(4-amino-7-pyrazol-1-yl-1H-imidazo[4,5-c]quinolin-2-yl)methyl]-N-ethylacetamide]"
> 100 µM,> 100 µM,CCN(Cc1nc2c(N)nc3cc(C4=CCCC4)ccc3c2[nH]1)C(C)=O [Compound 183]
1 to 20 µM,20 to 100 µM,CC(=O)N(C)Cc1nc2c(N)nc3ccccc3c2[nH]1 [Compound 187]
> 100 µM,> 100 µM,COC(=O)CCCn1c(CN(C)C(C)=O)nc2c(N)nc3ccccc3c21 [Compound 188]
> 100 µM,> 100 µM,CCN(Cc1nc2c(N)nc3cc(C4CC4)ccc3c2n1Cc1ccc(OC)cc1)C(C)=O [Compound 190]
> 100 µM,> 100 µM,CCN(Cc1nc2c(N)nc3ccccc3c2n1CCCNC(=O)OC(C)(C)C)C(C)=O [Compound 191]
> 100 µM,> 100 µM,CCN(Cc1nc2c(N)nc3ccc(Br)cc3c2[nH]1)C(C)=O [Compound 194]
> 100 µM,> 100 µM,CCN(Cc1nc2c(N)nc3cc(N4CCNC4=O)ccc3c2n1Cc1ccc(OC)cc1)C(C)=O [Compound 196]
> 100 µM,> 100 µM,CCN(Cc1nc2c(N)nc3ccc(Cl)cc3c2[nH]1)C(C)=O [Compound 197]
